The values that follow come from PMC7251097, “Aspartate/asparagine-β-hydroxylase: a high-throughput mass spectrometric assay for discovery of small molecule inhibitors” (Scientific Reports, 2020).

Where a name gives a salt, the structure may show the parent alone. Read-outs that look alike come from different tables or passages of the source.

The target of the assay is T1, His6-AspH315–758 (human aspartate/asparagine-β-hydroxylase, AspH) (Homo sapiens, UniProt Q12797).
T1 construct: N-Terminally His6-tagged human AspH315–758 (His6-AspH315–758) was produced in E. coli BL21 (DE3) cells; made in house; host or cells: E. coli BL21 (DE3), pET-28a(+) vector
T1 sequence (Q12797 315-758): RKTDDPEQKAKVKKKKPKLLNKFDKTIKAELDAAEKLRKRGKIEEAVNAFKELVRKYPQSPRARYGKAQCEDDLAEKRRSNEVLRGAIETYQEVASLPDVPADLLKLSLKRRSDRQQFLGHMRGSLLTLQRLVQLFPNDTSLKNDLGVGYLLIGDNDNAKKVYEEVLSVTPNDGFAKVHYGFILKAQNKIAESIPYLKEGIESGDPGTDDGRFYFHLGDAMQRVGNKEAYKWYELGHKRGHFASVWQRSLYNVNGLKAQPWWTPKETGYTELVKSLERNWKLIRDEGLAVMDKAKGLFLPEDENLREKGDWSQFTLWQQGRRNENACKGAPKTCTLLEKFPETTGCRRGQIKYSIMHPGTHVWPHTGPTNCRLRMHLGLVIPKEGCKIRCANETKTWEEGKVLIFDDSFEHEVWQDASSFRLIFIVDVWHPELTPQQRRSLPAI
The assay can be described thus: SPE-MS AspH inhibition assay (LOPAC screen at fixed 20 μM and IC50 dose-response), hydroxylation of cyclic peptide hFX-CP101–119. The assay is classed as biochemical. The following applies: for Plate 5 (% inhibition) / Plate 5 (% conversion): plate 5 (Pfitzer), test compounds at fixed 20 μM; for Plate 5 (% conversion): mean conversion DMSO 32.88.

Setting [1] is: LOPAC compound at fixed 20 uM, plate 1, normalised to DMSO and 2,4-PDCA controls.
[2] abbreviates: LOPAC compound at fixed 20 uM, substrate conversion, plate 1.
[3] abbreviates: LOPAC compound at 20uM, conversion of substrate peptide.
[4] abbreviates: LOPAC compound at 20uM, plate 2, conversion of substrate peptide.
The mark [5] stands for this setting: LOPAC compound at 20uM, plate 2, normalised to DMSO and 2,4-PDCA controls.
[6] abbreviates: LOPAC Plate 4, compound at 20 uM, substrate conversion.
Setting [7] is: LOPAC compound at 20uM, plate 2, normalised to DMSO and 2,4-PDCA controls, read-out: Plate 2 (% inhibition).
[8] abbreviates: LOPAC Plate 4, compound at 20 uM.

Turning to `O=C(O)CCCCCCCC(=O)O` [Azelaic acid], under setting [1], the “Plate 1 (% inhibition)” value was 11.13%. In addition, the “Plate 1 (% conversion)” value under setting [2] turned out to be 32.14%.

As to `c1ccc2c(c1)OCC(C1=NCCN1)O2` (stereo not drawn) [Idazoxan hydrochloride], the “Plate 3 (% conversion)” value under setting [3] came out at 39.66%.

Turning to `CS(=O)(=O)c1ccc(-n2nc(C(F)(F)F)cc2-c2ccc(F)cc2)cc1` [SC-58125], the “Plate 5 (% inhibition)” value is 0.65% and the “Plate 5 (% conversion)” value turned out to be 36.09%. The “Plate 3 (% conversion)” value under setting [3] stood at 37.41%.

In the case of `O=C(O)CCNc1cc(N2CCc3ccccc3CC2)nc(-c2ccccn2)n1` [GSK-J1, reference compound], the IC50 (50 nM His6-AspH315–758, 1.0 μM hFX-CP101–119, 3 μM 2OG, 2 μM Fe(II), 50 mM HEPES pH 7.5, 20 °C, mean ± SD, n = 2 (2,4-PDCA n = 10), read-out: IC50) was 12.9 ± 1.05 µM.

`Br.CN1CCc2cc(O)cc3c2[C@H]1Cc1ccc(O)c(O)c1-3`: the “Plate 2 (% conversion)” value under setting [4] was 6.73%. The “Plate 2 (% inhibition)” value under setting [5] is 87.29%.

Consider `CCCCCCCCCC(=O)NC(CN1CCOCC1)[C@H](O)c1ccccc1.Cl` (mixture of isomers), for which the “% conversion” value under setting [6] stood at 45.09%.

For the compound `CC[C@@]1(O)C(=O)OCc2c1cc1n(c2=O)Cc2cc3c(CN(C)C)c(O)ccc3nc2-1.Cl.O` [Topotecan hydrochloride hydrate], the “Plate 3 (% conversion)” value under setting [3] was determined as 37.14%.

For the compound `Br.CN1Cc2sccc2C(c2ccc(O)c(O)c2)C1` (stereo not drawn) [SKF-89145 hydrobromide], the “Plate 1 (% inhibition)” value under setting [1] amounted to 78.75%. Moreover, the “Plate 1 (% conversion)” value under setting [2] is listed as 9.43%.

For `Oc1ccc(/C=C/c2cc(O)cc(O)c2)cc1` [Resveratrol], the “% conversion” value under setting [6] was 34.33%.

`NC(=O)c1ncn([C@@H]2O[C@H](CO)[C@@H](O)[C@H]2O)n1` [Ribavirin]: the “% conversion” value under setting [6] was 38.92%. Moreover, where the note is “LOPAC Plate 4, compound at 20 uM, read-out: % inhibition”, the inhibition at 20 µM was -7.18%.

On to `C[N+](C)(C)CCCCCCCCCC[N+](C)(C)C.[Br-].[Br-]` [Decamethonium dibromide], for which the “Plate 2 (% conversion)” value was 41.52%. Further, the “Plate 2 (% inhibition)” value (20 µM) is recorded as -16.63%.

For the compound `CC(C)C(=O)c1c(C(C)C)nn2ccccc12` [Ibudilast], the “Plate 2 (% conversion)” value under setting [4] is reported as 39.05%. Further, the inhibition at 20 µM under setting [7] was -9.26%.

In the case of `Cc1onc(-c2ccccc2)c1-c1ccc(S(N)(=O)=O)cc1` [Valdecoxib], the “Plate 5 (% inhibition)” value worked out at 27.98% and the “Plate 5 (% conversion)” value amounted to 26.79%.

For the compound `Br.CCCN1CCC2c3cc(O)ccc3CCC21` (racemic) [cis(+/-)-8-OH-PBZI hydrobromide], the “Plate 3 (% conversion)” value under setting [3] was 33.20%.

For `CC(N)C(O)c1ccc(O)c(O)c1` (single isomer, unassigned; (-)) [(-)-alpha-Methylnorepinephrine], the “Plate 2 (% conversion)” value is on record as 7.36%. The “Plate 2 (% inhibition)” value (20 µM) was 85.40%.

Regarding `CCCN1CCC[C@@H](c2cccc(S(C)(=O)=O)c2)C1` [OSU6162], the “Plate 5 (% inhibition)” value came to 28.06% and the “Plate 5 (% conversion)” value amounted to 26.77%.

With `O=c1nc2[nH]c3ccccc3nc-2c(=O)[nH]1` [Alloxazine], under setting [1], the “Plate 1 (% inhibition)” value is given as -13.62%. Moreover, the “Plate 1 (% conversion)” value under setting [2] was 40.45%.

For `CC(C)(C)NCC(O)c1cc(O)cc(O)c1.CC(C)(C)NCC(O)c1cc(O)cc(O)c1.O=S(=O)(O)O` (stereo not drawn) [Terbutaline hemisulfate], the “% inhibition” value under setting [8] is on record as 5.48%. Moreover, under setting [6], the “% conversion” value came to 34.60%.

In the case of `CC(C)(C)c1cc(C(C)(C)C)c2c(c1)C(O)(C(F)(F)F)C(=O)O2` (racemic) [rac BHFF], the “% inhibition” value under setting [8] was 72.02%. Besides, the “% conversion” value under setting [6] is on record as 11.89%.

With `Cc1nc2c(OCc3ccccc3)cccn2c1CC#N` [SCH-28080], the “Plate 2 (% conversion)” value under setting [4] is given as 38.71%. The “Plate 2 (% inhibition)” value under setting [5] was -8.22%.

In the case of `Cn1cc(-c2[nH]c3cc(NC(=O)[C@H](N)C4CCCCC4)cc4c3c2C=NNC4=O)cn1` [PF-477736], the “Plate 5 (% inhibition)” value is -92.31% and the “Plate 5 (% conversion)” value amounted to 67.73%.

With `CSC(=N)N.CSC(=N)N.O=S(=O)(O)O` [S-Methylisothiourea hemisulfate], under setting [3], the “Plate 3 (% conversion)” value is listed as 35.95%.

In the case of `Cc1cc(NC(=O)Nc2ccc3c(ccn3C)c2)sn1` [SB 204741], the “Plate 1 (% conversion)” value came out at 37.70% and the “Plate 1 (% inhibition)” value was -5.45%.

As for `CCCCCC(O)CCCC(=O)O.[Na]` (stereo not drawn) [5-hydroxydecanoic acid sodium], the “Plate 2 (% conversion)” value under setting [4] came out at 36.96%. Further, the “Plate 2 (% inhibition)” value under setting [5] is -3.01%.

In the case of `N=C(N)SCCc1ccc(OCc2ccc([N+](=O)[O-])cc2)cc1` [KB-R7493], the “% inhibition” value under setting [8] is reported as -22.55%. In addition, the “% conversion” value under setting [6] is 44.17%.

Consider `CC1CNc2c(cccc2S(=O)(=O)N[C@@H](CCCNC(=N)N)C(=O)N2CC[C@@H](C)C[C@@H]2C(=O)O)C1` (stereo partly drawn) [Argatroban monohydrate], for which, under setting [1], the “Plate 1 (% inhibition)” value is -7.94%. Also, the “Plate 1 (% conversion)” value under setting [2] is recorded as 38.54%.

For the compound `CCN(CC)CCOCCOC(=O)C1(c2ccccc2)CCCC1` [Carbetapentane citrate], under setting [1], the “Plate 1 (% inhibition)” value was 80.85%. Under setting [2], the “Plate 1 (% conversion)” value is on record as 8.72%.

For `COc1ccccc1N1CCN(CCCCNC(=O)c2ccc3ccccc3c2)CC1` [BP 897], the “Plate 1 (% inhibition)” value under setting [1] is listed as -9.00%. Under setting [2], the “Plate 1 (% conversion)” value came out at 38.89%.

For the compound `Cc1ccc(/C(=C\CN2CCCC2)c2ccccn2)cc1.Cl` [Triprolidine hydrochloride], the “% inhibition” value under setting [8] is reported as -7.68%. Besides, the “% conversion” value under setting [6] came to 39.09%.

Take `CCN1/C(=C/C(C)=O)Sc2ccc(OC)cc21` [TG003]: the “Plate 3 (% conversion)” value under setting [3] stood at 40.97%.

Take `NC(=O)c1cc(N2CC2)c([N+](=O)[O-])cc1[N+](=O)[O-]` [CB 1954]: the “Plate 1 (% inhibition)” value under setting [1] was 4.86%. The “Plate 1 (% conversion)” value under setting [2] is reported as 34.24%.

Regarding `c1ccc(C2CC2)c(OCC2=NCCN2)c1` [Cirazoline hydrochloride], the “Plate 2 (% conversion)” value under setting [4] is 38.17%. The inhibition at 20 µM under setting [7] was -6.62%.

Consider `CNCCNS(=O)(=O)c1cccc2cnccc12.Cl.Cl` [H-8 dihydrochloride], for which the “Plate 3 (% conversion)” value under setting [3] is recorded as 37.53%.

For `Cl.Nc1c2c(nc3ccccc13)CCCC2`, the “Plate 1 (% conversion)” value was 23.39%.

Turning to `NCCCC(=O)O` [GABA], the “Plate 1 (% inhibition)” value under setting [1] is -1.98%. The “Plate 1 (% conversion)” value under setting [2] came to 36.54%.

For `Cl.NC1C=CC=C(C(=O)O)C1` (stereo not drawn) [Gabaculine hydrochloride], the “Plate 1 (% conversion)” value is listed as 33.90% and the “Plate 1 (% inhibition)” value is given as 5.88%.

In the case of `CCCC1O[C@@H]2C[C@H]3[C@@H]4CCC5=CC(=O)C=C[C@]5(C)[C@H]4[C@@H](O)C[C@]3(C)[C@]2(C(=O)CO)O1` (stereo partly drawn) [Budesonide], the “Plate 1 (% inhibition)” value under setting [1] is on record as -13.14%. The “Plate 1 (% conversion)” value under setting [2] was 40.29%.

As to `CCC1(C)CC(=O)NC1=O` (stereo not drawn) [Ethosuximide], the “Plate 2 (% conversion)” value under setting [4] was determined as 37.85%. For the same compound, under setting [7], the inhibition at 20 µM was -5.65%.

For the compound `Cc1cccc(C)c1NC(=O)CN1CCCC1=O` [Nefiracetam], the “Plate 2 (% conversion)” value stood at 34.89%. For the same compound, the inhibition at 20 µM (read-out: Plate 2 (% inhibition)) turned out to be 3.19%.

Consider `Oc1cc(O)cc(/C=C/c2ccc(O)c(O)c2)c1` [Piceatannol, reference compound], for which the inhibition at 20 µM (AspH activity, fixed compound concentration 20 μM, initial LOPAC screen, 0.5%v/v DMSO, read-out: Inhibition at 20 µM [%]) was determined as 99.9%. Further, under setting [3], the “Plate 3 (% conversion)” value was 2.48%.

For the compound `O=C(O)Cc1c[nH]c2ccc(O)cc12` [5-Hydroxyindolacetic acid], the “Plate 2 (% inhibition)” value under setting [5] is -3.79%.

Turning to `CCCC(CCC)C(=O)O` [Valproic acid sodium], under setting [3], the “Plate 3 (% conversion)” value came out at 37.52%.

`CC(C)=CCC/C(C)=C/COc1ccc2ccc(=O)oc2c1` [Auraptene]: the “% conversion” value under setting [6] is given as 37.42%.

With `N=c1ccn2c(n1)O[C@H]1[C@H](O)[C@@H](CO)O[C@H]12` [Ancitabine hydrochloride], the “Plate 1 (% inhibition)” value under setting [1] is given as -4.15%.

Consider `Brc1c(Br)c(Br)c2[nH]cnc2c1Br` [TBBz], for which the “Plate 1 (% conversion)” value is 32.96% and the “Plate 1 (% inhibition)” value is 8.67%.

For `CN(C)C[C@H](O)Cn1c2ccc(Br)cc2c2cc(Br)ccc21` (racemic) [Wiskostatin], under setting [6], the “% conversion” value was 31.93%.

With `CC(C)C(=O)Nc1ccc([N+](=O)[O-])c(C(F)(F)F)c1` [Flutamide], the “Plate 2 (% conversion)” value under setting [4] was found to be 40.61%. For the same compound, the inhibition at 20 µM under setting [7] is -13.9%.

As for `Nc1nc2c(nc(Br)n2[C@@H]2O[C@@H]3COP(=O)([O-])O[C@H]3[C@H]2O)c(=O)[nH]1.[Na+]` [8-Bromo-cGMP sodium], under setting [1], the “Plate 1 (% inhibition)” value amounted to 5.25%. For the same compound, the “Plate 1 (% conversion)” value under setting [2] is reported as 34.11%.

Consider `Cn1c(=O)c2[nH]c(-c3ccc(S(=O)(=O)O)cc3)nc2n(C)c1=O` [8-(p-Sulfophenyl)theophylline], for which, under setting [1], the “Plate 1 (% inhibition)” value amounted to 51.62%. The “Plate 1 (% conversion)” value under setting [2] was 18.54%.

The IC50 is the concentration at which inhibition is half-maximal. As usually defined, the inhibition is the relative decrease from the control value, in per cent. By % inhibition is commonly meant the relative decrease from the control value, in per cent.
